In patent US11541107B2, “Peptides and T cells for use in immunotherapeutic treatment of various cancers” (Immatics Biotechnologies GmbH, priority 2015, dated 2023):

What was measured:
CD8+ T cells = assay: In vitro T-cell priming assay (aAPCs loaded with peptide/MHC and anti-CD28, pMHC multimer readout; HLA-A*02 and HLA-A*24); type: cell-based, human; settings: in vitro immunogenicity of HLA class I peptides; for Wells positive [%]: peptide-specific T cells by pMHC multimer staining
Text: In order to obtain information regarding the immunogenicity of the TUMAPs of the present invention, the inventors performed investigations using an in vitro T-cell priming assay based on repeated stimulations of CD8+ T cells with artificial antigen presenting cells (aAPCs) loaded with peptide/MHC complexes and anti-CD28 antibody.
In order to perform in vitro stimulations by artificial antigen presenting cells loaded with peptide-MHC complex (pMHC) and anti-CD28 antibody, the inventors first isolated CD8+ T cells from fresh HLA-A*02 leukapheresis products via positive selection using CD8 microbeads (Miltenyi Biotec, Bergisch-Gladbach, Germany) of healthy donors obtained from the University clinics Mannheim, Germany, after informed consent.
PBMCs and isolated CD8+ lymphocytes were incubated in T-cell medium (TCM) until use consisting of RPMI-Glutamax (Invitrogen, Karlsruhe, Germany) supplemented with 10% heat inactivated human AB serum (PAN-Biotech, Aidenbach, Germany), 100 U/ml Penicillin/100 μg/ml Streptomycin (Cambrex, Cologne, Germany), 1 mM sodium pyruvate (CC Pro, Oberdorla, Germany), 20 μg/ml Gentamycin (Cambrex). 2.5 ng/ml IL-7 (PromoCell, Heidelberg, Germany) and 10 U/ml IL-2 (Novartis Pharma, Nürnberg, Germany) were also added to the TCM at this step.
Generation of pMHC/anti-CD28 coated beads, T-cell stimulations and readout was performed in a highly defined in vitro system using four different pMHC molecules per stimulation condition and 8 different pMHC molecules per readout condition.
The purified co-stimulatory mouse IgG2a anti human CD28 Ab 9.3 (Jung et al., 1987) was chemically biotinylated using Sulfo-N-hydroxysuccinimidobiotin as recommended by the manufacturer (Perbio, Bonn, Germany). Beads used were 5.6 μm diameter streptavidin coated polystyrene particles (Bangs Laboratories, Illinois, USA).
pMHC used for positive and negative control stimulations were A*0201/MLA-001 (peptide […] (SEQ ID NO. 418) from modified Melan-A/MART-1) and A*0201/DDX5-001 ([…] from DDX5, SEQ ID NO. 419), respectively.
800.000 beads/200 μl were coated in 96-well plates in the presence of 4×12.5 ng different biotin-pMHC, washed and 600 ng biotin anti-CD28 were added subsequently in a volume of 200 μl. Stimulations were initiated in 96-well plates by co-incubating 1×10^6 CD8+ T cells with 2×10^5 washed coated beads in 200 μl TCM supplemented with 5 ng/ml IL-12 (PromoCell) for 3 days at 37° C. Half of the medium was then exchanged by fresh TCM supplemented with 80 U/ml IL-2 and incubating was continued for 4 days at 37° C. This stimulation cycle was performed for a total of three times. For the pMHC multimer readout using 8 different pMHC molecules per condition, a two-dimensional combinatorial coding approach was used as previously described (Andersen et al., 2012) with minor modifications encompassing coupling to 5 different fluorochromes. Finally, multimeric analyses were performed by staining the cells with Live/dead near IR dye (Invitrogen, Karlsruhe, Germany), CD8-FITC antibody clone SK1 (BD, Heidelberg, Germany) and fluorescent pMHC multimers. For analysis, a BD LSRII SORP cytometer equipped with appropriate lasers and filters was used. Peptide specific cells were calculated as percentage of total CD8+ cells. Evaluation of multimeric analysis was done using the FlowJo software (Tree Star, Oregon, USA). In vitro priming of specific multimer+CD8+ lymphocytes was detected by comparing to negative control stimulations.
Exemplary flow cytometry results after TUMAP-specific multimer staining for 2 peptides of the invention are shown in FIGS. 3A-3B together with corresponding negative controls. Results for 5 peptides from the invention are summarized in Table12A. Exemplary flow cytometry results after TUMAP-specific multimer staining for 7 peptides of the invention are shown in FIGS. 4A-4C and FIGS. 5A-5D together with corresponding negative controls.

HLA-A*24 = assay: MHC binding assay, UV-ligand exchange with beta2m ELISA, HLA-A*24; parameters: species or system human; settings: binding to HLA-A*24 ranged by peptide exchange yield (UV-ligand exchange, beta2m ELISA)
Summary of the method: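 Peptide–MHC complexes made by UV-ligand exchange of a UV-cleavable peptide. Exchange yield measured by ELISA: monomers diluted 100-fold on streptavidin-coated plates, 1 h at 37°C, detected with HRP anti-β2m (2 ug/ml) and TMB, absorbance at 450 nm.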

HLA-A*02 = HLA-A*02 (Homo sapiens, UniProt P04439, D140Y/D185E/D98H/E176V/E277Q/G131W/G231S/I119V/I121R/I166T/I218V/L300P/N151K/N90K/P208A/P217A/Q86G/Q94H/R138H/R169H); assay: MHC binding assay, UV-ligand exchange with beta2m ELISA, HLA-A*02; settings: binding to HLA-A*02 ranged by peptide exchange yield (UV-ligand exchange, beta2m ELISA)
Text: Candidate peptides for T cell based therapies according to the present invention were further tested for their MHC binding capacity (affinity). The individual peptide-MHC complexes were produced by UV-ligand exchange, where a UV-sensitive peptide is cleaved upon UV-irradiation, and exchanged with the peptide of interest as analyzed. Only peptide candidates that can effectively bind and stabilize the peptide-receptive MHC molecules prevent dissociation of the MHC complexes. To determine the yield of the exchange reaction, an ELISA was performed based on the detection of the light chain (ß2 m) of stabilized MHC complexes. The assay was performed as generally described in Rodenko et al. (Rodenko et al., 2006).
96 well MAXISorp plates (NUNC) were coated over night with 2 ug/ml streptavidin in PBS at room temperature, washed 4× and blocked for 1 h at 37° C. in 2% BSA containing blocking buffer. […] Peptide-MHC monomers of the UV-exchange reaction were diluted 100 fold in blocking buffer. Samples were incubated for 1 h at 37° C., washed four times, incubated with 2 ug/ml HRP conjugated anti-β2 m for 1h at 37° C., washed again and detected with TMB solution that is stopped with […]. Absorption was measured at 450 nm. Candidate peptides that show a high exchange yield (preferably higher than 50%, most preferred higher than 75%) are generally preferred for a generation and production of antibodies or fragments thereof, and/or T cell receptors or fragments thereof, as they show sufficient avidity to the MHC molecules and prevent dissociation of the MHC complexes.

Row | Substance | Wells positive [%] (CD8+ T cells) | Peptide exchange (HLA-A*24) | Peptide exchange (HLA-A*02) | wells (CD8+ T cells; share of positive wells after stimulation of CD8+ T cells of healthy donors)
1 | 96 (YYTQYSQTI; listed as Homo sapiens) [compound 96] | + (<20% = +) | ++++ (>=75% = ++++) | – | –
2 | 98 (VFPRLHNVLF; listed as Homo sapiens) [compound 98] | + (<20% = +) | +++ (50%-75% = +++) | – | –
3 | 103 (NYIPVKNGKQF; listed as Homo sapiens) [compound 103] | + (<20% = +) | +++ (50%-75% = +++) | – | –
4 | 104 (SYLTWHQQI; listed as Homo sapiens) [compound 104] | + (<20% = +) | ++++ (>=75% = ++++) | – | –
5 | 105 (IYNETITDLL; listed as Homo sapiens) [compound 105] | + (<20% = +) | +++ (50%-75% = +++) | – | –
6 | 106 (IYNETVRDLL; listed as Homo sapiens) [compound 106] | + (<20% = +) | +++ (50%-75% = +++) | – | –
7 | 111 (VYVQILQKL; listed as Homo sapiens) [compound 111] | + (<20% = +) | +++ (50%-75% = +++) | – | –
8 | 115 (RYLNKSFVL; listed as Homo sapiens) [compound 115] | + (<20% = +) | +++ (50%-75% = +++) | – | –
9 | 132 (RYPALFPVL; listed as Homo sapiens) [compound 132] | + (<20% = +) | ++++ (>=75% = ++++) | – | –
10 | 137 (EYLHNCSYF; listed as Homo sapiens) [compound 137] | + (<20% = +) | ++++ (>=75% = ++++) | – | –
11 | 142 (VYVDDIYVI; listed as Homo sapiens) [compound 142] | ++++ (>=70% = ++++) | +++ (50%-75% = +++) | – | –
12 | 156 (YYMELTKLLL; listed as Homo sapiens) [compound 156] | + (<20% = +) | ++++ (>=75% = ++++) | – | –
13 | 157 (DYIPASGFALF; listed as Homo sapiens) [compound 157] | + (<20% = +) | +++ (50%-75% = +++) | – | –
14 | 158 (IYEETRGVLKVF; listed as Homo sapiens) [compound 158] | + (<20% = +) | +++ (50%-75% = +++) | – | –
15 | 160 (RYGDGGSSF; listed as Homo sapiens) [compound 160] | + (<20% = +) | +++ (50%-75% = +++) | – | –
16 | 161 (KYPDIVQQF; listed as Homo sapiens) [compound 161] | + (<20% = +) | +++ (50%-75% = +++) | – | –
17 | 162 (KYTSYILAF; listed as Homo sapiens) [compound 162] | + (<20% = +) | ++ (20%-49% = ++) | – | –
18 | 163 (RYLTISNLQF; listed as Homo sapiens) [compound 163] | + (<20% = +) | ++++ (>=75% = ++++) | – | –

Row | Substance | Wells positive [%] (CD8+ T cells) | Peptide exchange (HLA-A*24) | Peptide exchange (HLA-A*02) | wells (CD8+ T cells; share of positive wells after stimulation of CD8+ T cells of healthy donors)
19 | 164 (HYVPATKVF; listed as Homo sapiens) [compound 164] | + (<20% = +) | +++ (50%-75% = +++) | – | –
20 | 166 (FYTLPFHLI; listed as Homo sapiens) [compound 166] | ++++ (>=70% = ++++) | ++++ (>=75% = ++++) | – | –
21 | 167 (RYGFYYVEF; listed as Homo sapiens) [compound 167] | ++++ (>=70% = ++++) | +++ (50%-75% = +++) | – | –
22 | 172 (VFIFKGNEF; listed as Homo sapiens) [compound 172] | + (<20% = +) | ++++ (>=75% = ++++) | – | –
23 | 174 (VYEKNGYIYF; listed as Homo sapiens) [compound 174] | ++++ (>=70% = ++++) | +++ (50%-75% = +++) | – | –
24 | 175 (LYSPVPFTL; listed as Homo sapiens) [compound 175] | + (<20% = +) | +++ (50%-75% = +++) | – | –
25 | 177 (VYFKAGLDVF; listed as Homo sapiens) [compound 177] | + (<20% = +) | +++ (50%-75% = +++) | – | –
26 | 180 (KYLQVVGMF; listed as Homo sapiens) [compound 180] | + (<20% = +) | +++ (50%-75% = +++) | – | –
27 | 181 (VYPPYLNYL; listed as Homo sapiens) [compound 181] | ++++ (>=70% = ++++) | +++ (50%-75% = +++) | – | –
28 | 186 (VFTTSSNIF; listed as Homo sapiens) [compound 186] | + (<20% = +) | ++++ (>=75% = ++++) | – | –
29 | 190 (LYSELTETL; listed as Homo sapiens) [compound 190] | ++++ (>=70% = ++++) | +++ (50%-75% = +++) | – | –
30 | 338 (LLYDGKLSSA; listed as Homo sapiens) [compound 338] | – | – | ++ (20%-49% = ++) | –
31 | 339 (VLGPGPPPL; listed as Homo sapiens) [compound 339] | – | – | ++ (20%-49% = ++) | –
32 | 340 (SVAKTILKR; listed as Homo sapiens) [compound 340] | – | – | ++ (20%-49% = ++) | –
33 | 344 (EYNSDLHQF; listed as Homo sapiens) [compound 344] | + (<20% = +) | +++ (50%-75% = +++) | – | –
34 | 353 (TYGKIDLGF; listed as Homo sapiens) [compound 353] | + (<20% = +) | +++ (50%-75% = +++) | – | –
35 | 354 (VYNEQIRDLL; listed as Homo sapiens) [compound 354] | + (<20% = +) | +++ (50%-75% = +++) | – | –
36 | 407 (VYGIRLEHF; listed as Homo sapiens) [compound 407] | – | – | – | +++ (50%-69%= +++)
